{"source": "paper PMC12655438", "about": "“Inhibitory Activity of Calcium and Sodium Ion Channels of Neurotoxic Protoplaythoa variabilis V-Shape Helical Peptide Analogs and Their Neuroprotective Effect In Vitro” (Pharmaceuticals, 2025)", "key": {"[1]": {"tested_on": "6-OHDA-induced neurotoxicity on zebrafish locomotor behavior", "conditions": "ROS, dopaminergic neurons, ref [14], cited from earlier work", "excerpt": "Previously, we investigated the synthetic versions of the linear PpVα and the folded PpVα analog, which contains an internal single disulfide bond, and the linear, chimeric PpVα. […] [17]."}, "[2]": {"tested_on": "voltage-gated sodium channels in vertebrates", "conditions": "ref [14]; cited from earlier work", "excerpt": "(§1) Previously, we investigated the synthetic versions of the linear PpVα and the folded PpVα analog, which contains an internal single disulfide bond, and the linear, chimeric PpVα."}, "[3]": {"tested_on": "zebrafish model of epilepsy", "conditions": "ref [14]; cited from earlier work", "excerpt": "as §1"}, "[4]": {"tested_on": "sodium inward current (INa) in bovine chromaffin cells", "assay": "Sodium current (INa) block, whole-cell patch clamp in bovine chromaffin cells", "format": "cell-based", "conditions": "for Block of INa: 10 ms pulses to 0 mV, holding -80 mV, 0 mM external Ca2+, pH 7.4, 22–24 °C, end of 3-min superfusion (legend: 1 min), mean ± SEM, n = 3–6 cells"}, "[5]": {"conditions": "in 30%ACN/70%H2O; TFA salt, lyophilized powder; ref China Peptides (custom peptide service); cited from earlier work"}, "zebrafish larvae": {"tested_on": "zebrafish larvae", "conditions": "cited from earlier work"}, "[6]": {"tested_on": "voltage-dependent potassium current (IKv) in bovine chromaffin cells", "assay": "Voltage-dependent potassium current (IKv) block, whole-cell patch clamp in bovine chromaffin cells", "format": "cell-based"}, "[7]": {"tested_on": "human neuroblastoma (SH-SY5Y) cells", "conditions": "24 h"}, "[8]": {"tested_on": "voltage-dependent Ca^2+ channel (ICa) in bovine chromaffin cells", "format": "cell-based", "conditions": "for Block of ICa: 50 ms pulses to 0 mV, holding -80 mV, 10 mM Ca2+, 5 μM TTX, pH 7.4, 22–24 °C, end of 1-min superfusion"}, "[9]": {"tested_on": "intracellular calcium level ([Ca^2+]c) in bovine chromaffin cells", "assay": "Intracellular calcium level with Fluo-4-AM in K+-stimulated bovine chromaffin cells", "format": "cell-based", "conditions": "for Reduction of [Ca2+]c: Fluo-4, K+ stimulus (text 35 µM, legend 35 mM), room temperature, fluorescence 488/522 nm, mean ± SEM"}}, "note": "Entries after “also recorded” stand apart in the source; their conditions may differ. Like-named read-outs stand apart in the source and are kept apart here. Where a SMILES comes first, the peptide text is derived from it. Bridges are numbered along the chain shown (N, C = ends).", "data": [{"smiles": "CC[C@H](C)[C@H](NC(=O)[C@H](Cc1c[nH]c2ccccc12)NC(=O)[C@H](Cc1ccc(O)cc1)NC(=O)[C@@H](N)CCCCN)C(=O)N[C@@H](CC(C)C)C(=O)N[C@@H](CC(N)=O)C(=O)N[C@H](C(=O)N1CCC[C@H]1C(=O)N[C@@H](C)C(=O)N[C@@H](CO)C(=O)N[C@H](C(=O)N[C@H]1CSSC[C@@H](C(=O)N[C@@H](Cc2c[nH]c3ccccc23)C(=O)N[C@@H](CO)C(=O)N[C@@H](CCC(N)=O)C(=O)N[C@@H](CCSC)C(=O)N[C@@H](CC(C)C)C(=O)N[C@@H](CC(C)C)C(=O)N[C@@H](Cc2ccc(O)cc2)C(=O)N[C@@H](CCCCN)C(=O)N[C@@H](CCCCN)C(=O)N[C@@H](CO)C(N)=O)NC(=O)[C@H](Cc2ccc(O)cc2)NC(=O)[C@H](CCC(=O)O)NC(=O)[C@H](CC(=O)O)NC1=O)C(C)C)C(C)C", "note": "[SSB] (H-KYWILNVPASVCDEYCWSQMLLYKKS-NH2; disulfide 12-16; N-terminus assumed)", "values": [{"measurement": "Effect on 6-OHDA-induced neurotoxicity", "setting": "[1]; listed as folded PpVα", "result": "reversing the 6-hydroxydopamine (6-OHDA)-induced neurotoxicity on zebrafish locomotor behavior; also recorded: preventing the 6-OHDA-induced excessive ROS generation and subsequent dopaminergic neuron loss"}, {"measurement": "Effect on 6-OHDA-induced neurotoxicity", "setting": "[1]; listed as folded peptide", "result": "more effective than the linear unfolded peptide in suppressing 6-OHDA-induced neurotoxicity on locomotor behavior in zebrafish"}, {"measurement": "Effect on 6-OHDA-induced neurotoxicity", "setting": "[1]; listed as folded-PpVα", "result": "prevented the 6-OHDA-induced excessive ROS generation and subsequent dopaminergic neuron loss"}, {"measurement": "Block of voltage-gated sodium channels in vertebrates", "setting": "[2]", "result": "effective blockers of voltage-gated sodium channels in vertebrates"}, {"measurement": "Antiepileptic and neuroprotective activities", "setting": "[3]", "result": "displayed antiepileptic and neuroprotective activities"}, {"measurement": "Block of INa", "setting": "[4]; 3 μM", "result": "52.01 ± 11.02", "unit": "%"}, {"measurement": "Block of INa", "setting": "[4]; 10 μM", "result": "73.76 ± 6.37", "unit": "%"}, {"measurement": "IC50", "setting": "[4]; peak INa, fit to an exponential function, 1, 3, 10 μM, read-out: IC50 for sodium current blockade", "result": 3.15, "unit": "µM"}, {"measurement": "Solubility", "setting": "[5]", "result": 1000, "unit": "µg/mL"}, {"measurement": "LD50 in zebrafish larvae", "setting": "zebrafish larvae; concentration causing 50% of death, ref [14],[53]", "result": 10.88, "unit": "µM"}, {"measurement": "Toxicity relative to the linear peptide", "setting": "zebrafish larvae; zebrafish model, ref [14]", "result": "less toxic than the linear peptide"}, {"measurement": "Block of IKv", "setting": "[6]; 10 µM, 400 ms pulses to 100 mV, holding -80 mV, 2 mM Ca2+, 200 μM Cd2+, 22–24 °C, mean ± SEM, n = 3–4 cells", "result": "12.84 ± 4.19", "unit": "%"}, {"measurement": "Effect on voltage-dependent potassium current", "setting": "[6]; up to 10 µM", "result": "no effect on IKv was observed"}, {"measurement": "Cell viability", "setting": "[7]; 1 μM", "result": 75, "unit": "%"}, {"measurement": "Cell viability", "setting": "[7]; 3 μM", "result": 68, "unit": "%"}, {"measurement": "Cell viability", "setting": "[7]; 10 μM", "result": 65, "unit": "%"}, {"measurement": "Block of ICa", "setting": "[8]; 1 μM, mean ± SEM, n = 3–5 cells (legend: 5–6)", "result": "10.10 ± 7.22", "unit": "%"}, {"measurement": "Block of ICa", "setting": "[8]; 10 μM, mean ± SEM of 5–6 experiments", "result": "74.46 ± 5.00", "unit": "%"}, {"measurement": "IC50", "setting": "[8]; peak ICa, fit to an exponential function, 1, 3, 10 μM, read-out: IC50 for calcium current blockade", "result": 9.68, "unit": "µM"}, {"measurement": "Reduction of [Ca2+]c", "setting": "[9]; 1 μM", "result": "28.1 ± 6.0", "unit": "%"}, {"measurement": "Reduction of [Ca2+]c", "setting": "[9]; 3 μM", "result": "33.3 ± 7.9", "unit": "%"}, {"measurement": "Reduction of [Ca2+]c", "setting": "[9]; 10 μM", "result": "42.7 ± 7.4", "unit": "%"}, {"measurement": "IC50", "setting": "[9]; K+-stimulated, fit to an exponential function, 1, 3, 10 μM, read-out: IC50 for depression of the intracellular calcium increment", "result": 26, "unit": "µM"}]}]}
